Data taken from ChEMBL document CHEMBL1143586, “Dimeric zanamivir conjugates with various linking groups are potent, long-lasting inhibitors of influenza neuraminidase including H5N1 avian influenza” (J Med Chem, 2005).
Converted amounts (≈) assume the structure as drawn. “And” between values parts separate entries of the source, which are not always exact repeats. Identical values can stand only once.

How the values were obtained:
Influenza A virus [1] = tested on: Influenza A virus
Influenza B virus [2] = tested on: Influenza B virus
in vivo [3] = details: rat, po
Influenza A virus [4] = tested on: Influenza A virus; remark: listed apart in the source
Mus musculus [5] = experiment: Single intranasal effective dose required to inhibit viral replication in the 7-Day mouse efficacy model (Dosed with influenza A/Singapore /1/57); assay type: functional; details: inhaled or nasal, 168 h
Influenza A virus [6] = tested on: Influenza A virus; remark: listed apart in the source
in vivo [7] = details: rat, plasma
[8] = Plasma half life in rat after 2 mg/kg intravenous dosage; assay type: ADME, organism-based; set-up: dose 2 mg/kg, route intravenous
in vivo [9] = details: rat
Influenza A virus [10] = tested on: Influenza A virus; remark: listed apart in the source
Influenza A virus [11] = tested on: Influenza A virus; remark: listed apart in the source
Influenza B virus [12] = tested on: Influenza B virus; remark: listed apart in the source
[13] = Plasma half life in rat after 10 mg/kg oral dosage; assay type: ADME, organism-based; set-up: dose 10 mg/kg, route oral
Influenza A virus [14] = tested on: Influenza A virus; remark: listed apart in the source
Influenza B virus [15] = tested on: Influenza B virus; remark: listed apart in the source
in vivo [16] = details: rat, inhaled or intranasal
[17] = Plasma half life in rat after 0.4 mg/kg intratracheal dosage; assay type: ADME, organism-based; set-up: dose 0.4 mg/kg, route endotracheal; details: inhaled or intranasal
in vivo [18] = details: rat, po; remark: listed apart in the source
[19] = target: Neuraminidase (Influenza A virus (A/Puerto Rico/8/1934(H1N1)), UniProt P03468)
Neuraminidase (Influenza A virus (A/Puerto Rico/8/1934(H1N1)), UniProt P03468), sequence (P03468 whole entry): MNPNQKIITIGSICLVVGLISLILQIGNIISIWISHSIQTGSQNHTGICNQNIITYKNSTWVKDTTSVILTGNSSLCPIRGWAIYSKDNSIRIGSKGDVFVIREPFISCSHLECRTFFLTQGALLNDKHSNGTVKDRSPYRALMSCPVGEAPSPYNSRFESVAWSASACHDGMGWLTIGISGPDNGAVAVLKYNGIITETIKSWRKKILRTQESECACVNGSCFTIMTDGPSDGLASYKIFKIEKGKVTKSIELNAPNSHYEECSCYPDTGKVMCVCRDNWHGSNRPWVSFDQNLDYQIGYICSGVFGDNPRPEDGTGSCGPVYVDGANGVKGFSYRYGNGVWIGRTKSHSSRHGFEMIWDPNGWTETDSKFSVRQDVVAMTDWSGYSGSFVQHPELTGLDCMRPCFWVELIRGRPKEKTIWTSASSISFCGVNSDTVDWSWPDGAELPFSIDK

Mus musculus [20] = experiment: Single intranasal effective dose required to inhibit viral replication in the 7-Day mouse efficacy model (Dosed with influenza A/Victoria/3/75); assay type: functional; details: inhaled or nasal, 168 h
[21] = target: Neuraminidase (Influenza A virus (A/Puerto Rico/8/1934(H1N1)), UniProt P03468); remark: listed apart in the source
[22] = target: Neuraminidase (Influenza A virus (A/Puerto Rico/8/1934(H1N1)), UniProt P03468); remark: listed apart in the source

Row | SMILES | EC50 (Influenza A virus [1]) | EC50 (Influenza B virus [2]) | bioavailability (in vivo [3]) | EC50 (Influenza A virus [6]) | clearance (in vivo [7]) | half-life [8] | Vd (in vivo [9]) | EC50 (Influenza A virus [10]) | EC50 (Influenza A virus [11]) | EC50 (Influenza B virus [12]) | half-life [13] | EC50 (Influenza A virus [14]) | bioavailability (in vivo [16]) | half-life [17] | further results
1 | [H]/N=C(\N)N[C@H]1C=C(C(=O)O)O[C@@H]([C@H](O)[C@H](O)CO)C1NC(C)=O (some centres not stated) | 0.27 ng/mL (≈ 0.812 nM) | 21 ng/mL (≈ 63.2 nM) | 2.7% | 35 ng/mL (≈ 105 nM) | 0.0852 L/h/kg | 0.4 h | 0.03 L/kg | 56 ng/mL and > 100 ng/mL | 2.4 ng/mL (≈ 7.22 nM) | 11.5 ng/mL (≈ 34.6 nM) | 0.25 h | 2.7 ng/mL (≈ 8.12 nM) | – | – | EC50 (Influenza A virus [4]): 5.5 ng/mL (≈ 16.6 nM); ED90 (Mus musculus [5]): 2.92 mg/kg
2 | COC(=O)C1=C[C@H](N=C(N)N)C(NC(C)=O)[C@H]([C@H](OC(=O)NCCCNC(=O)c2ccc(C(=O)NCCCNC(=O)O[C@H](C(O)CO)[C@@H]3OC(C(=O)O)=C[C@H](N=C(N)N)C3NC(C)=O)cc2)C(O)CO)O1 (some centres not stated) | 0.06 ng/mL (≈ 0.0595 nM) | 0.32 ng/mL (≈ 0.317 nM) | – | 0.009 ng/mL (≈ 0.00892 nM) | 0.042 L/h/kg | 0.4 h | 0.2 L/kg | 0.02 ng/mL (≈ 0.0198 nM) | 0.05 ng/mL (≈ 0.0496 nM) | – | – | 0.03 ng/mL (≈ 0.0297 nM) | 67% | 2 h | EC50 (Influenza B virus [15]): 0.022 ng/mL (≈ 0.0218 nM); bioavailability (in vivo [18]): < 1%
3 | CC(=O)NC1[C@@H](N=C(N)N)C=C(C(=O)O)O[C@H]1[C@H](OC(=O)NCCCCCCCCCCCCNC(=O)O[C@H](C(O)CO)[C@@H]1OC(C(=O)O)=C[C@H](NC(=N)N)C1NC(C)=O)C(O)CO (some centres not stated) | – | 0.37 ng/mL (≈ 0.403 nM) | < 1% | – | 0.042 L/h/kg | 2.2 h | 0.2 L/kg | – | 0.032 ng/mL (≈ 0.0349 nM) | 0.05 ng/mL and 0.1 ng/mL | 4.9 h | 0.032 ng/mL (≈ 0.0349 nM) | 67% | 5 h | IC50 [19]: 0.0217 µM; ED90 (Mus musculus [20]): 0.03 mg/kg; IC50 [21]: 0.00786 µM; IC50 [22]: 0.061 µM
